Experimental data: patent US10065990B2, “Cyclic peptide compound, and preparation method, pharmaceutical composition and use thereof” (HANGZHOU GUANYU BIO-MEDICAL CO., LTD, priority 2013, dated 2018)
Like-named read-outs stand apart in the source and are kept apart here.

Experiments:
[1] = target: T1, HDAC7 (Homo sapiens, UniProt Q8WUI4); assay: HDAC biochemical activity measurement (fluorescent substrate deacetylation);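 for all read-outs here: fluorogenic deacetylation assay using acetyl-lysine substrate at 20 µM, enzyme and compound incubated 30 min at 37 °C, then developer added, fluorescence read at 360/460 nm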; conditions: for IC50 HDAC7: 37° C. 30 minutes
T1 sequence (Q8WUI4 1-952): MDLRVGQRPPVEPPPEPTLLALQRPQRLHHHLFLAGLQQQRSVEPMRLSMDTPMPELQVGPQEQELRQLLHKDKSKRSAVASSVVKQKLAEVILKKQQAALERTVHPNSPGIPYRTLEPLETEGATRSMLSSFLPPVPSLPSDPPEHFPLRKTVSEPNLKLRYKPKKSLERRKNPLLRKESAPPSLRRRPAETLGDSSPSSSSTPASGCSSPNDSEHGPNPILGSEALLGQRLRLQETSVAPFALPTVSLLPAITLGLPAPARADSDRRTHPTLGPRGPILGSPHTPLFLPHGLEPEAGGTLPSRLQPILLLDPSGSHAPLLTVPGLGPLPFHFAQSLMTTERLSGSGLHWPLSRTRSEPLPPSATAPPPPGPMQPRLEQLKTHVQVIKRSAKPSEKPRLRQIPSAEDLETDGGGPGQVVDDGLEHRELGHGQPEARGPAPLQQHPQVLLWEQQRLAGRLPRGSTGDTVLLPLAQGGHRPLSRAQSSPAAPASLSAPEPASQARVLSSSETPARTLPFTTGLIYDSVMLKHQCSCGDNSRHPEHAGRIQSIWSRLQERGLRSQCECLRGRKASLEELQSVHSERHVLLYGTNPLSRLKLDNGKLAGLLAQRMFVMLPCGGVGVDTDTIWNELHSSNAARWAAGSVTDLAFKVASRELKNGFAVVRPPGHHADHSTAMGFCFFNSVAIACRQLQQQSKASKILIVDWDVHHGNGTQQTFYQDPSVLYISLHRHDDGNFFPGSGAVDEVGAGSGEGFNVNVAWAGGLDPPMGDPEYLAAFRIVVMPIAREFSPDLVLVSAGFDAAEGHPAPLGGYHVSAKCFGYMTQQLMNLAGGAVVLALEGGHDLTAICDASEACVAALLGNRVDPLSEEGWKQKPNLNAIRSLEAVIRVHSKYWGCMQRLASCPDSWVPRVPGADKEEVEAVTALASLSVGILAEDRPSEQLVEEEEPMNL

[2] = system: A549 (human lung cancer cells); assay: MTT cancer cell growth inhibition; assay type: cell-based; conditions: Homo sapiens, A549, 72 h, MTT, 72 hours incubation, read-out: GI50 A54
Outline: (§1)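 72 h exposure, final drug 10^−5–10^−10 M, triplicate wells; 1500 cells/well plated the day before; medium DMEM or 1640 + 10% FBS; 37° C./5% CO2. MTT (5 mg/ml stock) 4 h, DMSO solubilisation, A570 → % viability → GI50.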

[3] = system: BGC-823 (human gastric cancer cells); assay: MTT cancer cell growth inhibition; assay type: cell-based; conditions: Homo sapiens, BGC-823, 72 h, MTT, 72 hours incubation, read-out: GI50 BG
Outline: as §1

[4] = system: Bel-7402 (human hepatoma cells); assay: MTT cancer cell growth inhibition; assay type: cell-based; conditions: Homo sapiens, Bel-7402, 72 h, MTT, 72 hours incubation, Bel-7402 cells; read-out: GI50 Bel-7402
Outline: as §1

[5] = system: DU145 (human prostate cancer cells); assay: MTT cancer cell growth inhibition; assay type: cell-based; conditions: Homo sapiens, DU-145, 72 h, MTT, 72 hours incubation, read-out: GI50 Du1
Outline: as §1

[6] = system: H1975 (non-small cell lung adenocarcinoma); assay: MTT cancer cell growth inhibition; assay type: cell-based; conditions: Homo sapiens, NCI-H1975, 72 h, MTT, 72 hours incubation, H1975 cells; read-out: GI50 H1975
Outline: as §1

[7] = system: HCC827 (human non-small cell lung cancer cells); assay: MTT cancer cell growth inhibition; assay type: cell-based; conditions: Homo sapiens, HCC827, 72 h, MTT, 72 hours incubation, HCC827 cells; read-out: GI50 HCC827
Outline: as §1

[8] = system: HT1080 (human fibrosarcoma cells); assay: MTT cancer cell growth inhibition; assay type: cell-based; conditions: Homo sapiens, HT-1080, 72 h, MTT, 72 hours incubation, read-out: GI50 HT1
Outline: as §1

[9] = system: Hela (human cervical cancer cells); assay: MTT cancer cell growth inhibition; assay type: cell-based; conditions: Homo sapiens, HeLa, 72 h, MTT, 72 hours incubation, read-out: GI50 Hela
Outline: as §1

[10] = system: Huh-7 (human hepatoma cells); assay: MTT cancer cell growth inhibition; assay type: cell-based; conditions: Homo sapiens, Huh-7, 72 h, MTT, 72 hours incubation, Huh-7 cells; read-out: GI50 Huh-7
Outline: as §1

[11] = system: K562 (human leukemia cells); assay: MTT cancer cell growth inhibition; assay type: cell-based; conditions: Homo sapiens, K562, 72 h, MTT, 72 hours incubation, K562 cells; read-out: GI50 K562
Outline: as §1

[12] = system: KBM-5 (human chronic myelogenous leukemia); assay: MTT cancer cell growth inhibition; assay type: cell-based; conditions: Homo sapiens, KBM5, 72 h, MTT, 72 hours incubation, KBM-5 cells; read-out: GI50 KBM-5
Outline: as §1

[13] = system: KBM5-T315I (human chronic myelogenous leukemia); assay: MTT cancer cell growth inhibition; assay type: cell-based; conditions: Homo sapiens, 72 h, MTT, 72 hours incubation, KBM5-T315I cells; read-out: GI50 KBM5-T315I
Outline: as §1

[14] = system: MCF-7 (human breast cancer cells); assay: MTT cancer cell growth inhibition; assay type: cell-based; conditions: Homo sapiens, MCF7, 72 h, 72 hours incubation, read-out: GI50 MCF
Outline: as §1

[15] = system: MDA-MB-231 (breast cancer cells); assay: MTT cancer cell growth inhibition; assay type: cell-based; conditions: Homo sapiens, MDA-MB-231, 72 h, read-out: GI50 MDA-MB-231, MTT, 72 hours incubation, MDA-MB-231 cells
Outline: as §1

[16] = system: MOLT-4 (human acute lymphoblastic leukemia cells); assay: MTT cancer cell growth inhibition; assay type: cell-based; conditions: Homo sapiens, MOLT-4, 72 h, MTT, 72 hours incubation, read-out: GI50 Mol
Outline: as §1

[17] = system: N-87 (human gastric cancer cells); assay: MTT cancer cell growth inhibition; assay type: cell-based; conditions: Homo sapiens, 72 h, MTT, 72 hours incubation, N-87 cells; read-out: GI50 N-87
Outline: as §1

[18] = system: PANC-1 (Pac-1, human pancreatic cancer cells); assay: MTT cancer cell growth inhibition; assay type: cell-based; conditions: Homo sapiens, PANC-1, 72 h, MTT, 72 hours incubation, read-out: GI50 PAN
Outline: as §1

[19] = system: SGC-7901 (human gastric cancer cells); assay: MTT cancer cell growth inhibition; assay type: cell-based; conditions: Homo sapiens, SGC-7901, 72 h, MTT, 72 hours incubation, SGC-7901 cells; read-out: GI50 SGC-7901
Outline: as §1

[20] = system: U937 (human leukemia cells); assay: MTT cancer cell growth inhibition; assay type: cell-based; conditions: Homo sapiens, U-937, 72 h, MTT, 72 hours incubation, read-out: GI50 U93
Outline: as §1

[21] = system: lncap (prostate cancer cells); assay: MTT cancer cell growth inhibition; assay type: cell-based; conditions: Homo sapiens, LNCaP, 72 h, MTT, 72 hours incubation, read-out: GI50 lnca
Outline: as §1

Row | SMILES | IC50 HDAC7 [1] | GI50 [2] [µM] | GI50 [3] [µM] | GI50 [4] [µM] | GI50 [5] [µM] | GI50 [6] [µM] | GI50 [7] [µM] | GI50 [8] [µM] | GI50 [9] [µM] | GI50 [10] [µM] | GI50 [11] [µM] | GI50 [12] [µM] | GI50 [13] [µM] | GI50 [14] [µM] | GI50 [15] [µM] | GI50 [16] [µM] | GI50 [17] [µM] | GI50 [18] [µM] | GI50 [19] [µM] | GI50 [20] [µM] | also measured
1 | C=C1NC(=O)c2ccc(F)c(n2)CNC(=O)C[C@@H](/C=C/CCSC(C)=O)OC(=O)[C@H](C(C)C)NC1=O [Compound 86] | no activity | 0.02 | 0.03 | 0.082 | 0.03 | 0.039 | 0.082 | 0.08 | 0.06 | 0.037 | 0.038 | 0.061 | 0.034 | 0.03 | 0.037 | 0.03 | 0.037 | 0.08 | 0.028 | 0.03 | GI50 [21]: 0.03 µM
2 | C/C=C1\NC(=O)c2cc(SCC)cc(n2)CNC(=O)C[C@@H](/C=C/CCSC(=O)CCCCC)OC(=O)[C@H](C(C)C)NC1=O [Compound 254] |  |  |  | 0.031 |  | 0.018 | 0.035 |  |  | 0.046 | 0.078 | 0.053 | 0.042 |  | 0.081 |  | 0.064 |  | 0.087 |  | IC50 (μM) HDAC7 [1]: no activity; GI50 ([2]; A549 cells): 0.04 µM; GI50 ([3]; BGC-823 cells): 0.06 µM; GI50 ([5]; DU145 cells): 0.06 µM; GI50 ([8]; HT1080 cells): 0.06 µM; GI50 ([9]; Hela cells): 0.04 µM; GI50 ([14]; MCF-7 cells): 0.05 µM; GI50 ([16]; MOLT-4 cells): 0.04 µM; GI50 ([18]; PANC-1 cells): 0.01 µM; GI50 ([20]; U937 cells): 0.04 µM; GI50 ([21]; lncap cells): 0.01 µM
3 | C=C1NC(=O)c2ccc(F)c(n2)CNC(=O)C[C@@H](/C=C/CCS)OC(=O)[C@H](C)NC1=O [Compound 142] | no activity | 0.13 | 0.07 | 0.073 | 0.05 | 0.059 | 0.066 | 0.07 | 0.05 | 0.038 | 0.084 | 0.073 | 0.035 | 0.05 | 0.051 | 0.02 | 0.042 | 0.13 | 0.053 | 0.05 | GI50 [21]: 0.11 µM
4 | C=C1NC(=O)c2cc(F)cc(n2)CNC(=O)C[C@@H](/C=C/CCS)OC(=O)[C@H](C)NC1=O [Compound 141] | no activity | 0.05 | 0.03 | 0.058 | 0.07 | 0.038 | 0.037 | 0.08 | 0.08 | 0.028 | 0.031 | 0.036 | 0.043 | 0.07 | 0.026 | 0.08 | 0.067 | 0.05 | 0.017 | 0.05 | GI50 [21]: 0.08 µM
5 | C/C=C1\NC(=O)c2ccc(SC)c(n2)CNC(=O)C[C@@H](/C=C/CCSC(C)=O)OC(=O)[C@H](Cc2cccc3ccccc23)NC1=O [Compound 200] | no activity |  |  | 0.026 |  | 0.059 | 0.045 |  |  | 0.026 | 0.107 | 0.028 | 0.034 |  | 0.046 |  | 0.039 |  | 0.058 |  | GI50 ([2]; A549 cells): 0.02 µM; GI50 ([3]; BGC-823 cells): 0.08 µM; GI50 ([5]; DU145 cells): 0.06 µM; GI50 ([8]; HT1080 cells): 0.04 µM; GI50 ([9]; Hela cells): 0.03 µM; GI50 ([14]; MCF-7 cells): 0.03 µM; GI50 ([16]; MOLT-4 cells): 0.04 µM; GI50 ([18]; PANC-1 cells): 0.07 µM; GI50 ([20]; U937 cells): 0.05 µM; GI50 ([21]; lncap cells): 0.08 µM
